Measurements published in ChEMBL document CHEMBL1158556, “Design of pentapeptidic BACE1 inhibitors with carboxylic acid bioisosteres at P1' and P4 positions” (Bioorg Med Chem, 2010).

How the values were obtained:
Beta-secretase 1 [1] = target: T1, Beta-secretase 1 (Homo sapiens, UniProt P56817); test: Inhibition of human BACE1 by FRET assay
Beta-secretase 1 [2] = target: T1, Beta-secretase 1; test: Inhibition of human BACE1 at 2 uM by FRET assay
Beta-secretase 1 [3] = target: T1, Beta-secretase 1; test: Inhibition of human BACE1 at 0.2 uM by FRET assay

T1 sequence (P56817 whole entry): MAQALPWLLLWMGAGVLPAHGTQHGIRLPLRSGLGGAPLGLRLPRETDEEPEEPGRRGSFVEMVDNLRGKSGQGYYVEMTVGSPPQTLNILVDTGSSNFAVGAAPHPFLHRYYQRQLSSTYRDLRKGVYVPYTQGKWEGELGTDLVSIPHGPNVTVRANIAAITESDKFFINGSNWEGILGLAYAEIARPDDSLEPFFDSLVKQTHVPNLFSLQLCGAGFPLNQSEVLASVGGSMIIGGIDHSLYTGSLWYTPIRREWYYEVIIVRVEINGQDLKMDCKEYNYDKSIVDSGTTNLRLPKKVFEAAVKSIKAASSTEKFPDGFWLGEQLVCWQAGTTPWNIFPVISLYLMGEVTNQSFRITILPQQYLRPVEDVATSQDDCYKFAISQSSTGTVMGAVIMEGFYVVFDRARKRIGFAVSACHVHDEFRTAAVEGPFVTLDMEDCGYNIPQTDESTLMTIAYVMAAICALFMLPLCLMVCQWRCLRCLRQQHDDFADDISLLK

inhibition (Beta-secretase 1 [2]) | inhibition (Beta-secretase 1 [3]) | SMILES | IC50 (Beta-secretase 1 [1])
99% | 93% | CC(C)C[C@H](NC(=O)[C@@H](NC(=O)[C@@H](N)CNC(=O)c1[nH]c(=O)[nH]c(=O)c1F)C(C)C)C(=O)N[C@@H](Cc1ccccc1)[C@@H](O)C(=O)Nc1cccc(-c2nsc(=O)[nH]2)c1 | –
99% | 89% | CC(C)C[C@H](NC(=O)[C@@H](NC(=O)[C@@H](N)CNC(=O)c1cc(O)ccc1O)C(C)C)C(=O)N[C@@H](Cc1ccccc1)[C@@H](O)C(=O)Nc1cccc(-c2n[nH]c(=S)o2)c1 | –
94% | 64% | CC(C)C[C@H](NC(=O)[C@@H](NC(=O)[C@@H](N)CNC(=O)c1cc(O)ccc1O)C(C)C)C(=O)N[C@@H](Cc1ccccc1)[C@@H](O)C(=O)Nc1cccc(-c2n[nH]c(=S)n2C)c1 | –
> 99% | 95% | CC(C)C[C@H](NC(=O)[C@@H](NC(=O)[C@@H](N)CNC(=O)c1[nH]c(=O)[nH]c(=O)c1F)C(C)C)C(=O)N[C@@H](Cc1ccccc1)[C@@H](O)C(=O)Nc1cccc(-c2n[nH]c(=S)o2)c1 | –
> 99% | – | CC(C)[C@H](NC(=O)[C@@H](N)CNC(=O)c1nn[nH]n1)C(=O)N[C@@H](CC1CCCCC1)C(=O)N[C@@H](Cc1ccccc1)[C@@H](O)C(=O)Nc1cccc(-c2nn[nH]n2)c1 | –
99% | 92% | CC(C)C[C@H](NC(=O)[C@@H](NC(=O)[C@@H](N)CNC(=O)c1[nH]c(=O)[nH]c(=O)c1F)C(C)C)C(=O)N[C@@H](Cc1ccccc1)[C@@H](O)C(=O)Nc1cccc(-c2n[nH]c(=S)n2C)c1 | –
99% | 92% | CC(C)C[C@H](NC(=O)[C@@H](NC(=O)[C@@H](N)CNC(=O)c1cc(O)ccc1O)C(C)C)C(=O)N[C@@H](Cc1ccccc1)[C@@H](O)C(=O)Nc1cccc(-c2nsc(=O)[nH]2)c1 | –
> 99% | 95% | CC(C)C[C@H](NC(=O)[C@@H](NC(=O)[C@@H](N)CNC(=O)c1[nH]c(=O)[nH]c(=O)c1F)C(C)C)C(=O)N[C@@H](Cc1ccccc1)[C@@H](O)C(=O)Nc1cccc(-c2noc(=S)[nH]2)c1 | 0.0102 µM

More lines, now with the values behind:

SMILES | inhibition (Beta-secretase 1 [2]) | inhibition (Beta-secretase 1 [3]) | IC50 (Beta-secretase 1 [1])
CC(C)C[C@H](NC(=O)[C@@H](NC(=O)[C@@H](N)CNC(=O)c1cc(O)ccc1O)C(C)C)C(=O)N[C@@H](Cc1ccccc1)[C@@H](O)C(=O)Nc1cccc(-c2nc(=O)o[nH]2)c1 | – | – | 0.01 µM
CC(C)C[C@H](NC(=O)[C@@H](NC(=O)[C@@H](N)CNC(=O)c1[nH]c(=O)[nH]c(=O)c1F)C(C)C)C(=O)N[C@@H](Cc1ccccc1)[C@@H](O)C(=O)Nc1cccc(-c2nn[nH]n2)c1 | > 99% | – | –
CC(C)C[C@H](NC(=O)[C@@H](NC(=O)[C@@H](N)CNC(=O)c1cc(O)ccc1O)C(C)C)C(=O)N[C@@H](Cc1ccccc1)[C@@H](O)C(=O)Nc1cccc(-c2noc(=S)[nH]2)c1 | > 99% | 93% | –
CC(C)[C@H](NC(=O)[C@@H](N)CNC(=O)c1[nH]c(=O)[nH]c(=O)c1F)C(=O)N[C@@H](CC1CCCCC1)C(=O)N[C@@H](Cc1ccccc1)[C@@H](O)C(=O)Nc1cccc(-c2nn[nH]n2)c1 | > 99% | – | –
CC(C)C[C@H](NC(=O)[C@@H](NC(=O)[C@@H](N)CNC(=O)c1cc(O)ccc1O)C(C)C)C(=O)N[C@@H](Cc1ccccc1)[C@@H](O)C(=O)Nc1cccc(-c2nc(=S)o[nH]2)c1 | – | – | 0.0106 µM
CC(C)[C@H](NC(=O)[C@@H](N)CNC(=O)c1nc[nH]n1)C(=O)N[C@@H](CC1CCCCC1)C(=O)N[C@@H](Cc1ccccc1)[C@@H](O)C(=O)Nc1cccc(-c2nn[nH]n2)c1 | 94% | 69% | –
CC(C)[C@H](NC(=O)[C@@H](N)CNC(=O)c1c[nH]cn1)C(=O)N[C@@H](CC1CCCCC1)C(=O)N[C@@H](Cc1ccccc1)[C@@H](O)C(=O)Nc1cccc(-c2nn[nH]n2)c1 | 83% | 45% | –
CC(C)C[C@H](NC(=O)[C@@H](NC(=O)[C@@H](N)CNC(=O)c1nn[nH]n1)C(C)C)C(=O)N[C@@H](Cc1ccccc1)[C@@H](O)C(=O)Nc1cccc(-c2nn[nH]n2)c1 | > 99% | – | –
CC(C)C[C@H](NC(=O)[C@@H](NC(=O)[C@@H](N)CNC(=O)c1[nH]c(=O)[nH]c(=O)c1F)C(C)C)C(=O)N[C@@H](Cc1ccccc1)[C@@H](O)C(=O)Nc1cccc(-c2noc(=O)[nH]2)c1 | > 99% | 96% | 0.0079 µM
CC(C)C[C@H](NC(=O)[C@@H](NC(=O)[C@@H](N)CNC(=O)c1cc(O)ccc1O)C(C)C)C(=O)N[C@@H](Cc1ccccc1)[C@@H](O)C(=O)Nc1cccc(-c2noc(=O)[nH]2)c1 | > 99% | 92% | –
CC(C)C[C@H](NC(=O)[C@@H](NC(=O)[C@@H](N)CNC(=O)c1c[nH]cn1)C(C)C)C(=O)N[C@@H](Cc1ccccc1)[C@@H](O)C(=O)Nc1cccc(-c2nn[nH]n2)c1 | 87% | 50% | –
CC(C)C[C@H](NC(=O)[C@@H](NC(=O)[C@@H](N)CNC(=O)c1nc[nH]n1)C(C)C)C(=O)N[C@@H](Cc1ccccc1)[C@@H](O)C(=O)Nc1cccc(-c2nn[nH]n2)c1 | 91% | 58% | –
